Data published in PubChem BioAssay AID248 (DTP/NCI, 2004).
Where “and” joins values, the source holds several entries; their conditions need not be identical. Equal entries are not always repeated. Toxic doses and inconclusive results are not listed. No stated cut-off is given here; in the data, active means T/C of 150% or more; inactive means T/C below 125%.

Test system: L1210 leukemia ip in BDF1 mice, survival T/C
Assay: NCI In Vivo Anticancer Drug Screen. Data for tumor model L1210 Leukemia (intraperitoneal) in B6D2F1 (BDF1) mice
Details: endpoint: mean survival time, higher = longer survival
Summary of the method: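 Survival endpoint. Drug-treated group vs vehicle group, expressed as T divided by C. Tumor passaged by transplantation.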

[1] = dose: 100.0 mg/kg/injection, schedule: Q01DX001 (ip), vehicle: saline with Tween-80
[2] = dose: 200.0 mg/kg/injection, schedule: Q01DX001 (ip), vehicle: saline with Tween-80
[3] = dose: 400.0 mg/kg/injection, schedule: Q01DX001 (ip), vehicle: saline with Tween-80
[4] = dose: 100.0 mg/kg/injection, schedule: Q04DX003 (ip), vehicle: saline
[5] = dose: 200.0 mg/kg/injection, schedule: Q04DX003 (ip), vehicle: saline
[6] = dose: 400.0 mg/kg/injection, schedule: Q04DX003 (ip), vehicle: saline
[7] = dose: 100.0 mg/kg/injection, schedule: Q01DX001 (ip), vehicle: saline
[8] = dose: 200.0 mg/kg/injection, schedule: Q01DX001 (ip), vehicle: saline
[9] = dose: 400.0 mg/kg/injection, schedule: Q01DX001 (ip), vehicle: saline
[10] = dose: 75.0 mg/kg/injection, schedule: Q01DX001 (ip), vehicle: saline
[11] = dose: 150.0 mg/kg/injection, schedule: Q01DX001 (ip), vehicle: saline
[12] = dose: 100.0 mg/kg/injection, schedule: Q04DX003 (ip), vehicle: saline with Tween-80
[13] = dose: 200.0 mg/kg/injection, schedule: Q04DX003 (ip), vehicle: saline with Tween-80
[14] = dose: 400.0 mg/kg/injection, schedule: Q04DX003 (ip), vehicle: saline with Tween-80
[15] = dose: 100.0 mg/kg/injection, schedule: Q01DX001 (ip), vehicle: carboxymethylcellulose (CMC)
[16] = dose: 200.0 mg/kg/injection, schedule: Q01DX001 (ip), vehicle: carboxymethylcellulose (CMC)
[17] = dose: 100.0 mg/kg/injection, schedule: Q01DX009 (ip), vehicle: Klucel (hydroxypropylcellulose) (HPC)
[18] = dose: 100.0 mg/kg/injection, schedule: Q04DX003 (ip), vehicle: Klucel (hydroxypropylcellulose) (HPC)
[19] = dose: 200.0 mg/kg/injection, schedule: Q01DX009 (ip), vehicle: Klucel (hydroxypropylcellulose) (HPC)
[20] = dose: 200.0 mg/kg/injection, schedule: Q04DX003 (ip), vehicle: Klucel (hydroxypropylcellulose) (HPC)
[21] = dose: 400.0 mg/kg/injection, schedule: Q01DX009 (ip), vehicle: Klucel (hydroxypropylcellulose) (HPC)
[22] = dose: 400.0 mg/kg/injection, schedule: Q04DX003 (ip), vehicle: Klucel (hydroxypropylcellulose) (HPC)

Measured: T/C

O=C1C=C(c2ccccc2)C(Cl)(c2ccccc2)C1 (configuration not stated)
inactive: [1] 104 % of control | [2] 96 % of control | [3] 89 % of control

CN1CC(COC(=O)Cc2c[nH]c3ccccc23)C=C2c3cccc4[nH]cc(c34)CC21 (configuration not stated)
inactive: dose: 25.0 mg/kg/injection, schedule: Q04DX003 (ip), vehicle: alcohol 98 % of control | dose: 50.0 mg/kg/injection, schedule: Q04DX003 (ip), vehicle: alcohol 96 % of control | dose: 100.0 mg/kg/injection, schedule: Q04DX003 (ip), vehicle: alcohol 102 % of control | dose: 200.0 mg/kg/injection, schedule: Q04DX003 (ip), vehicle: alcohol 96 % of control | dose: 400.0 mg/kg/injection, schedule: Q04DX003 (ip), vehicle: alcohol 96 % of control

CCOC(CN=CN(C)C)OCC
inactive: [4] 94 % of control | [5] 105 % of control | [6] 97 % of control

COc1ccc(/C=C(\CC(=O)c2ccccc2)C(=O)Nc2ccccc2)cc1
inactive: [7] 93 % of control | [4] 109 % of control | [8] 96 % of control | [5] 98 % of control | [9] 103 % of control | [6] 95 % of control

[O-][n+]1c(Cl)cc(Cl)c2ccccc21
inactive: dose: 25.0 mg/kg/injection, schedule: Q01DX009 (ip), vehicle: saline with Tween-80 95 % of control | dose: 50.0 mg/kg/injection, schedule: Q01DX009 (ip), vehicle: saline with Tween-80 114 % of control | dose: 100.0 mg/kg/injection, schedule: Q01DX009 (ip), vehicle: saline with Tween-80 97 % of control and 102 % of control

NNc1ccc(S(=O)(=O)C(F)(F)C(F)Cl)cc1 (configuration not stated)
inactive: dose: 100.0 mg/kg/injection, schedule: Q01DX009 (ip), vehicle: gum acacia 105 % of control | dose: 100.0 mg/kg/injection, schedule: Q04DX003 (ip), vehicle: gum acacia 101 % of control | dose: 200.0 mg/kg/injection, schedule: Q01DX009 (ip), vehicle: gum acacia 100 % of control | dose: 200.0 mg/kg/injection, schedule: Q04DX003 (ip), vehicle: gum acacia 96 % of control | dose: 400.0 mg/kg/injection, schedule: Q04DX003 (ip), vehicle: gum acacia 96 % of control

CC(C)(C)C(=O)/C=C(\C=S(C)(C)=O)c1ccccc1
inactive: dose: 25.0 mg/kg/injection, schedule: Q04DX003 (ip), vehicle: saline 105 % of control | dose: 50.0 mg/kg/injection, schedule: Q04DX003 (ip), vehicle: saline 97 % of control | [4] 100 % of control

O=P1(c2ccccc2)C=C(Cl)CC1 (configuration not stated)
inactive: [10] 96 % of control | [11] 107 % of control

C=C(CC)C(=O)OCC
inactive: [4] 105 % of control | [5] 94 % of control | [6] 96 % of control

C[N+]1(Cc2ccccc2)C2CCC1C(=O)N(Cc1ccccc1)C2=O (configuration not stated)
inactive: [10] 103 % of control | [11] 116 % of control

CCCCCC(CN(C)C)C(/C=C/c1ccccc1Cl)OC(=O)c1ccc([N+](=O)[O-])cc1 (configuration not stated)
inactive: [12] 95 % of control | [13] 92 % of control | [14] 92 % of control

CC(C)C(CN)(CCN1CCCCC1)Cc1cccc2ccccc12 (configuration not stated)
inactive: [12] 97 % of control

CNC(=S)N/N=C/CCC/C=N/NC(=S)NC
inactive: dose: 50.0 mg/kg/injection, schedule: Q01DX001 (ip), vehicle: carboxymethylcellulose (CMC) 96 % of control | [15] 100 % of control | [16] 98 % of control

C/C=C(\C#N)c1ccc(-c2ccccc2)cc1
inactive: [1] 94 % of control | [2] 91 % of control | [3] 98 % of control

O=C(OCc1ccccc1)C1CCCN1 (configuration not stated)
inactive: dose: 25.0 mg/kg/injection, schedule: Q01DX009 (ip), vehicle: water 104 % of control | dose: 25.0 mg/kg/injection, schedule: Q04DX003 (ip), vehicle: water 109 % of control | dose: 50.0 mg/kg/injection, schedule: Q01DX009 (ip), vehicle: water 97 % of control | dose: 50.0 mg/kg/injection, schedule: Q04DX003 (ip), vehicle: water 96 % of control | dose: 100.0 mg/kg/injection, schedule: Q01DX009 (ip), vehicle: water 97 % of control | dose: 100.0 mg/kg/injection, schedule: Q04DX002 (ip), vehicle: saline 100 % of control | dose: 100.0 mg/kg/injection, schedule: Q04DX003 (ip), vehicle: water 102 % of control | dose: 200.0 mg/kg/injection, schedule: Q01DX009 (ip), vehicle: water 102 % of control | dose: 200.0 mg/kg/injection, schedule: Q04DX002 (ip), vehicle: saline 96 % of control | dose: 200.0 mg/kg/injection, schedule: Q04DX003 (ip), vehicle: water 102 % of control | dose: 400.0 mg/kg/injection, schedule: Q01DX009 (ip), vehicle: water 103 % of control | dose: 400.0 mg/kg/injection, schedule: Q04DX003 (ip), vehicle: water 109 % of control

O=c1[nH]c2ccccc2c2ccc([N+](=O)[O-])cc12
inactive: [15] 95 % of control | [16] 106 % of control | dose: 400.0 mg/kg/injection, schedule: Q01DX001 (ip), vehicle: carboxymethylcellulose (CMC) 93 % of control

COc1ccc(OC)c(N(CCN2C(=O)c3ccccc3C2=O)C(=O)CCl)c1
inactive: dose: 25.0 mg/kg/injection, schedule: Q04DX002 (ip), vehicle: Klucel (hydroxypropylcellulose) (HPC) 97 % of control | dose: 50.0 mg/kg/injection, schedule: Q04DX002 (ip), vehicle: Klucel (hydroxypropylcellulose) (HPC) 90 % of control | dose: 100.0 mg/kg/injection, schedule: Q04DX002 (ip), vehicle: Klucel (hydroxypropylcellulose) (HPC) 97 % of control and 91 % of control

O=P(Oc1ccccc1)(Oc1ccccc1)C(Nc1ccccc1)c1ccccc1 (configuration not stated)
inactive: [14] 90 % of control

C=CC1CCN(CCn2cc(C)c(=O)[nH]c2=O)CC1
inactive: [12] 101 % of control | [13] 107 % of control | [14] 101 % of control

O=C(c1ccccc1)C(O)(c1ccccc1)C1CCCC/C1=N\N(c1ccccc1)c1ccccc1 (configuration not stated)
inactive: [12] 92 % of control | [13] 96 % of control | [14] 94 % of control

CCC(C)(C)c1ccc(O)c(C(C)(C)CC)c1
inactive: [17] 96 % of control | [18] 100 % of control | [19] 96 % of control | [20] 89 % of control | [21] 96 % of control | [22] 87 % of control

CC(C)(C)NC(=O)CCC(CC(=O)NC(C)(C)C)S(=O)(=O)O (configuration not stated)
inactive: dose: 50.0 mg/kg/injection, schedule: Q01DX009 (ip), vehicle: saline 97 % of control | dose: 100.0 mg/kg/injection, schedule: Q01DX009 (ip), vehicle: saline 97 % of control | [4] 98 % of control | dose: 200.0 mg/kg/injection, schedule: Q01DX009 (ip), vehicle: saline 90 % of control | [5] 95 % of control

CCOC(=O)c1ccc(NC(=O)/C=C/c2ccccc2)cc1
inactive: [17] 97 % of control | [19] 95 % of control | [21] 97 % of control

CC1CC(=O)CC(C)(C)N1 (configuration not stated)
inactive: [7] 105 % of control | [8] 98 % of control | [9] 94 % of control

Oc1ccc2ccccc2c1C(c1ccccc1)c1c(O)ccc2ccccc12
inactive: dose: 87.5 mg/kg/injection, schedule: Q04DX003 (ip), vehicle: carboxymethylcellulose (CMC) 106 % of control | dose: 175.0 mg/kg/injection, schedule: Q04DX003 (ip), vehicle: carboxymethylcellulose (CMC) 95 % of control | dose: 350.0 mg/kg/injection, schedule: Q04DX003 (ip), vehicle: carboxymethylcellulose (CMC) 111 % of control

CN(C)CCNCC(=O)CC(O)(C(F)(F)F)C(F)(F)F
inactive: dose: 100.0 mg/kg/injection, schedule: Q01DX001 (ip), vehicle: Klucel (hydroxypropylcellulose) (HPC) 96 % of control | [18] 108 % of control | dose: 200.0 mg/kg/injection, schedule: Q01DX001 (ip), vehicle: Klucel (hydroxypropylcellulose) (HPC) 109 % of control | [20] 97 % of control | dose: 400.0 mg/kg/injection, schedule: Q01DX001 (ip), vehicle: Klucel (hydroxypropylcellulose) (HPC) 104 % of control | [22] 113 % of control

ClCC(Cl)CN1CCCCC1 (configuration not stated)
inactive: [12] 112 % of control
